Patent publication US20040101915A1, “Diagnosis and treatment of chemoresistant tumors” (IRM LLC, a Delaware Limited Liability Company, priority 2002, published 2004)

Experiments:
[1] = test system: DR5 protein levels in DOHH2 cells; settings: 4.25 μM etoposide, Western blot
Method: Western blot analysis was used to evaluate protein expression. Cells (2.4×10^6 well) were seeded in 6 well plates and treated with the respective apoptosis stimuli. After the indicated time periods cells were washes in ice cold PBS and lysed in 1% Triton X-100 containing hypotonic lysis buffer (20 mM HEPES pH 7.5, 10 mM KCl, 1.5 mM MgCl2, 1 mM EDTA and 1 mM DTT). Protein (40 μg) was electorphoresed under reducing conditions on 10-20% gradient SDS-polyacrylamide gels. After electroblotting on nitrocellulose membranes (Schleicher and Schuell) the membranes were blocked for 1 h with 10% non-fat milk powder and immunoblotted for 1 h with the following primary antibodies: rabbit anti-DR5 polyclonal antibody (1:500, Cayman Chemicals), mouse anti-Fas monoclonal antibody CH-11 (MBL), rabbit anti-caspase-3 polyclonal antibody (1:1000, Pharmingen), rabbit anti-caspase-8 polyclonal antibody (1:1000, Pharmingen), mouse anti-caspase-9 monoclonal antibody 5B4 (1:1000, MBL), mouse anti-bcl-2 monoclonal antibody (1:500, Pharmingen) or goat anti-actin polyclonal antibody (1:200, Santa Cruz Biotechnology). Membranes were washed five times with TBS/0.05% Tween, incubated with the respective peroxidase conjugated affinity purified secondary antibody (1:5000, Biorad) for 30 min, washed again five times and developed using enhanced chemiluminescence (ECL, Amersham).

K422 cells [2] = test: Caspase activity assay (AFC release from DEVD-AFC) in lysates of treated cells; type: cell-based, human; settings: 100 nM
Method: Caspase activities were assayed as previously described (Stennicke and Salvesen, 2000) at 37° C. in 40 μl of caspase buffer (50 mM HEPES pH 7.4, 100 mM NaCl, 10% sucrose, 1 mM EDTA, 0.1% CHAPS and 10 mM DTT) containing 100 μM of the fluorogenic peptide Ac-DEVD-AFC. Activity was measured continuously over the indicated time by the release of AFC from DEVD-AFC using a Molecular Devices fluorometer in the kinetic mode and with the 405-510 filter pair. For the assessment of caspase activity in intact cells after treatment with different apoptosis stimuli 10-20 μg of total cell protein (Triton X-100 extracts) was used in 40 μl of caspase buffer (containing 100 μM DEVD-AFC). For in-vitro initiation of caspase activity by cytochrome c Triton X-100 free, hypotonic cytosolic extracts were prepared and 10 μM horse heart cytochrome c (Sigma) together with 1 mM dATP or recombinant active caspase-8 (20 nM) were used for caspase activation (Deveraux et al., 1997). For reconstitution of RL-7 hypotonic cell extracts recombinant pro-caspase-3 was used as previously described (Stennicke et al., 1998).

K422 cells [3] = test: Western blot analysis of caspase processing in treated FL cells; type: cell-based, human; settings: 100 nM; for processing of caspase-8: DOHH2, K422 and RL-7; for caspase processing of the caspases-2, -3, -7 and -9: K422 versus DOHH2 and RL-7
Description: Western blot analysis was used to evaluate protein expression.

K422 cells [4] = test: MTT cytotoxicity assay, K422 cells; type: cell-based, human; settings: for difference in IC50 concentrations in K422 cells compared to the other cell lines tested: 24 hours, MTT, other lines DOHH2, Jurkat, Jurkat bcl-2, RL-7
Method: An MTT cytotoxicity assay was used to determine the number of viable cells following treatment with various apoptotic stimuli. Cells (100 μl of a 8×10^5 cells/ml suspension) were added to each well of a 96 well plate and incubated with etoposide or doxorubicin for 24-72 h. MTT dye solution was then added for 4 h, the blue crystal product was solubilized over night at 37° C. and absorbance was measured at 570 nm. Because the MTT assay also measures growth arrest, the MTT results were verified with caspase activity assays.

K422 cells [5] = test: Morphological examination of treated FL cells; type: cell-based, human; settings: FL cells DOHH2, K422, RL-7
NCI 60 tumor cell panel = settings: NCI database; cited from earlier work
DOHH2 cells = test: MTT cytotoxicity assay, DOHH2 cells; type: cell-based, human; settings: etoposide 0.425 μM 4 hours then agonistic anti-DR5 antibodies 12 hours, compared to drug or antibody alone
RL-7 cells = test: MTT cytotoxicity assay, RL-7 cells; type: cell-based, human; settings: etoposide 0.425 μM 4 hours then agonistic anti-DR5 antibodies 12 hours

| Structure (SMILES) | DR5 protein levels following exposure [1] | caspase activation (enzymatic activity) (K422 cells [2]) | processing of caspase-8 (K422 cells [3]) | caspase processing of the caspases-2, -3, -7 and -9 (K422 cells [3]) | difference in IC50 concentrations in K422 cells compared to the other cell lines tested (K422 cells [4]) | classical features of apoptosis (morphology) (K422 cells [5]) | sensitivity of NCI 60 tumor cell panel (NCI 60 tumor cell panel) | effect of etoposide pretreatment on apoptosis induced by anti-DR5 antibody (DOHH2 cells) | effect of etoposide pretreatment on apoptosis induced by anti-DR5 antibody (K422 cells [4]; K422, etoposide 0.425 μM 4 hours then agonistic anti-DR5 antibodies 12 hours) | effect of etoposide pretreatment on apoptosis induced by anti-DR5 antibody (RL-7 cells) |
| --- | --- | --- | --- | --- | --- | --- | --- | --- | --- | --- |
| COc1cccc2c1C(=O)c1c(O)c3c(c(O)c1C2=O)C[C@@](O)(C(=O)CO)C[C@@H]3O[C@H]1C[C@H](N)[C@H](O)[C@H](C)O1 [doxorubicin] | significantly increased |  |  |  |  |  |  |  |  |  |
| CO[C@@H]1[C@H]([N+](C)(C)C)CC2O[C@]1(C)n1c3ccccc3c3c4c(c5c6ccccc6n2c5c31)C(=O)NC4 [Staur-F3] |  | induced caspase activation | remained unprocessed in all of the cell lines | only in K422 but not DOHH2 or the caspase-3 deficient RL-7 cells | 25 fold | only K422 exhibited the classical features of apoptosis |  |  |  |  |
| C[C@H]1CCC/C=C/[C@@H]2C[C@H](O)C[C@H]2[C@H](O)/C=C/C(=O)O1 [Brefeldin A] |  | induced caspase activation | remained unprocessed in all of the cell lines | only in K422 but not DOHH2 or the caspase-3 deficient RL-7 cells | 6 fold | only K422 exhibited the classical features of apoptosis | one of the most sensitive cell lines is NCI/ADR |  |  |  |
| COc1cc([C@@H]2c3cc4c(cc3[C@@H](O[C@@H]3O[C@@H]5CO[C@@H](C)O[C@H]5[C@H](O)[C@H]3O)[C@H]3COC(=O)[C@H]23)OCO4)cc(OC)c1O [etoposide] | significantly increased |  |  |  |  |  |  | significantly increased apoptosis | negligible effect | negligible effect |
